The values below come from patent US20250090614A1, “COMPOSITIONS AND METHODS FOR IMPROVING LUNG FUNCTION” (priority 2023, published 2025).

Molecules are shown by their SMILES.

Common to all, as to format: in vivo, mouse
Holding throughout (conditions): aged C57BL/6 mice, 25 mg/kg p.o. each substance, 90 days

The test system of one assay is SIRT1. Description: SIRT1 ELISA in lung tissue homogenate of aged mice. How it is done: The experiments were performed in old C57b1/6 mice (28-30 weeks). Table 1 discloses the groups of mice used for the experimentation. C57BL/6 mice were bred and naturally aged in a pathogen-free colony. Mice were group-housed six per cage for the treatment regimen and maintained on a 12-hr light-dark schedule with ad libitum access to food and water. All experiments were designed according to the principles of animal use for gerontological research (Miller, R. A., & Nadon, N. L. (2000). Principles of animal use for gerontological research. Journals of Gerontology. Series A, Biological Sciences and Medical Sciences, 55, B117-B123) [table] The above test substances were administered to the mice for a period of 90 days. Rapamycin was used as a positive control. After 90 days of administration experiments were performed to assess the respiratory muscle function, anatomical changes, cellular senescence and immunological changes. A number of cellular mechanisms and alterations constitute the hallmarks of cellular senescence. These include a stable cell cycle arrest chromatin alteration & reorganization; Inhibition of Sirt-1. Inhibition of AMPK and Dysregulation of mTOR. Silencing information regulator 2 related enzyme 1 (sirtuin1, SIRT1) is an NAD+-dependent deacetylase, which is involved in the regulation of cellular senescence and aging. The expression of SIRT1 is diminished with aging in mice. […]

Another assay relates to AMPK. The assay can be described thus: AMPK ELISA in lung tissue homogenate of aged mice. The method, then:
The experiments were performed in old C57b1/6 mice (28-30 weeks). Table 1 discloses the groups of mice used for the experimentation. C57BL/6 mice were bred and naturally aged in a pathogen-free colony. Mice were group-housed six per cage for the treatment regimen and maintained on a 12-hr light-dark schedule with ad libitum access to food and water. All experiments were designed according to the principles of animal use for gerontological research (Miller, R. A., & Nadon, N. L. (2000). Principles of animal use for gerontological research. Journals of Gerontology. Series A, Biological Sciences and Medical Sciences, 55, B117-B123)
The above test substances were administered to the mice for a period of 90 days. Rapamycin was used as a positive control. After 90 days of administration experiments were performed to assess the respiratory muscle function, anatomical changes, cellular senescence and immunological changes.
Activation of AMPK delays senescence. Abnormal autophagy and aging promote each other, and AMPK is an important regulator of this process. AMPK is involved in the transduction of several aging-related signaling pathways. AMPK intervenes in the development of many age-related diseases.

A further assay relates to old C57b1/6 mice. The assay can be described thus: Tidal volume by whole-body plethysmography in aged mice. How it is done: The experiments were performed in old C57b1/6 mice (28-30 weeks). Table 1 discloses the groups of mice used for the experimentation. C57BL/6 mice were bred and naturally aged in a pathogen-free colony. Mice were group-housed six per cage for the treatment regimen and maintained on a 12-hr light-dark schedule with ad libitum access to food and water. All experiments were designed according to the principles of animal use for gerontological research (Miller, R. A., & Nadon, N. L. (2000). Principles of animal use for gerontological research. Journals of Gerontology. Series A, Biological Sciences and Medical Sciences, 55, B117-B123) [table] The above test substances were administered to the mice for a period of 90 days. Rapamycin was used as a positive control. […] The respiratory muscle function in the study animals was assessed by estimating the Tidal Volume, Minute ventilation, Transdiaphragmatic pressure ([…]) and Respiratory rate. […] In the present study, ventilatory parameters were measured in awake mice during eupnoea (spontaneous breathing of room air) using a whole-body plethysmography system. […] Recordings were taken after 10 min of acclimatization and recorded for one hour. Recorded parameters included tidal volume and minute ventilation

In the case of `O=C(/C=C/c1ccc(O)c(O)c1)O[C@H](Cc1ccc(O)c(O)c1)C(=O)O` [Rosmarinic acid], in the assay with SIRT1, the “expression of SIRT1” value is reported as “increased”. For the same compound, the AMPK levels entry in the assay with AMPK is recorded as “increased”. Moreover, the tidal volume entry in the assay on old C57b1/6 mice (versus old mice control) is on record as “increased”. In the assay on old C57b1/6 mice (Rapamycin 8 mg/kg p.o. positive control), the “tidal volume, comparison between treatment groups” value was “better than control, and Rapamycin”.
